Assay results published in US12187681B2 (Shanghai East Hospital, priority 2019, dated 2025).

Assays:
Assay type in all cases: cell-based
[1] = molecular target: T1, human ERG (ether-a-go-go related gene) potassium channel (Homo sapiens, UniProt Q12809); assay: hERG channel whole-cell patch clamp (Ion Channel Activity Measurement); settings: room temperature; for hERG 1 μM (ion-channel inhibition): 1 μM test article; for hERG 10 μM (ion-channel inhibition): 10 μM test article
T1 construct: expressed in transfected cells; host or cells: HEK293
T1 sequence (Q12809 whole entry): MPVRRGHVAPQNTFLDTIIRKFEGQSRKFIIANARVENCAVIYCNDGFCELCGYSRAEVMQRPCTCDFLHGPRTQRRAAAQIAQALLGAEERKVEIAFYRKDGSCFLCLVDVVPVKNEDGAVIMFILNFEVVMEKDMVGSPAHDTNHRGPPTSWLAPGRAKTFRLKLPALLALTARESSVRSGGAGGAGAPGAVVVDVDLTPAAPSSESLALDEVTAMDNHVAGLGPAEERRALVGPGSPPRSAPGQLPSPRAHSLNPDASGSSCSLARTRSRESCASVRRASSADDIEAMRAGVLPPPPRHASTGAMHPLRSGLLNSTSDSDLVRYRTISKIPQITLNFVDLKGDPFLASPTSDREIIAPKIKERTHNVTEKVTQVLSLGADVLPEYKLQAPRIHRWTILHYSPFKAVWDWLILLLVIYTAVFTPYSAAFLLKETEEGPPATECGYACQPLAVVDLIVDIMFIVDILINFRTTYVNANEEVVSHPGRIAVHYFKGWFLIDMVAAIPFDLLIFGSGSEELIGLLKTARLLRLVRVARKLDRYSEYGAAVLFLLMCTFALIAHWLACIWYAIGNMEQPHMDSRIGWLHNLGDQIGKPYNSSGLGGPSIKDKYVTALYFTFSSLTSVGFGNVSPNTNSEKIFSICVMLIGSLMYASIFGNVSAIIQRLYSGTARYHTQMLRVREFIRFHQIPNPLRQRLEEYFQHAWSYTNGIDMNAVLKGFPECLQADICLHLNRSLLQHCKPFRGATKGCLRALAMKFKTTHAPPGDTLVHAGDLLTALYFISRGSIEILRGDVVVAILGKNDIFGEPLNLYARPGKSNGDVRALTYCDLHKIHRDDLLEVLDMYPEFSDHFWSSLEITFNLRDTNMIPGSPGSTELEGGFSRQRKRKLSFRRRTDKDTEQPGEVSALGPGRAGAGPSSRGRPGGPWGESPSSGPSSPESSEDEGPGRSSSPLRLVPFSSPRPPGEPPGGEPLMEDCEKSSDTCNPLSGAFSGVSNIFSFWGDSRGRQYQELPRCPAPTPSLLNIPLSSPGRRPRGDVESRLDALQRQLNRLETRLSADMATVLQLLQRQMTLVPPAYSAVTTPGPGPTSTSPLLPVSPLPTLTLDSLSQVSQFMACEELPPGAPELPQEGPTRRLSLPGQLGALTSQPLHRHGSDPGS
How it was run: (§1)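 HEK293 cells stably expressing hERG (NM_000238) were recorded by whole-cell patch clamp at 23-25° C. Holding potential −80 mV, step to 30 mV for 2.5 s, tail currents at −50 mV for 4 s, pulses every 10 s. Each concentration was perfused low to high for 5 min or to steady state, with each cell as its own control.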

[2] = molecular target: T2, human calcium channel, voltage-dependent, L type (CaV1.2: CACNA1C, CACNB2, CACNA2D1) (Homo sapiens, UniProt Q13936); assay: CaV1.2 channel whole-cell patch clamp (Ion Channel Activity Measurement); settings: room temperature; for Cav1.2 1 μM (ion-channel inhibition): 1 μM test article; for CaV 1.2 10 μM (ion-channel inhibition): 10 μM test article
T2 construct: expressed in transfected cells; host or cells: CHO
How it was run: (§2)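 Whole-cell patch clamp was run on CHO cells stably expressing CACNA1C/CACNB2/CACNA2D1 at 23–25 °C, with 10 mM CaCl2 TEA bath (pH 7.4) and CsCl pipette solution (pH 7.2). Currents were evoked from −80 mV to +10 mV for 0.3 s every 20 s without leak subtraction. Ascending concentrations were each applied for 5 min or until steady state.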

[3] = molecular target: T3, hERG (human ether-a-go-go related gene potassium channel, KCNH2) (Homo sapiens, UniProt Q12809); assay: hERG channel whole-cell patch clamp (Ion Channel Activity Measurement); settings: human, HEK293 cells expressing the human ERG potassium channel, room temperature; for inhibition at 1 μM: pH 7.4, 1 μM test article; for inhibition at 10 μM: pH 7.4, 10 μM test article
T3 construct: expressed in transfected cells; host or cells: HEK293
T3 sequence (Q12809 whole entry): as above
How it was run: as §1

[4] = molecular target: T4, CaV1.2 (L-type voltage-dependent calcium channel; CACNA1C, CACNB2, CACNA2D1) (Homo sapiens, UniProt Q13936); assay: CaV1.2 channel whole-cell patch clamp (Ion Channel Activity Measurement); settings: human, room temperature; for inhibition at 5 min, 1 μM: pH 7.4, 1 μM test article; for inhibition at 5 min, 10 μM: pH 7.4, 10 μM test article, read-out: CaV 1.2 10 μM (ion-channel inhibition)
T4 construct: expressed in transfected cells; host or cells: CHO
How it was run: as §2

[5] = molecular target: T5, Iks potassium channel (KCNQ1/KCNE1) (Homo sapiens, UniProt P51787); assay: Iks channel whole-cell patch clamp (Ion Channel Activity Measurement); settings: human, CHO cells stably expressing Iks channel (KCNQ1 and KCNE1), room temperature; for inhibition at 5 min, 1 μM: pH 7.4, 1 μM test article; for inhibition at 5 min, 10 μM: pH 7.4, 10 μM test article
T5 construct: expressed in transfected cells; host or cells: CHO
T5 sequence (P51787 whole entry): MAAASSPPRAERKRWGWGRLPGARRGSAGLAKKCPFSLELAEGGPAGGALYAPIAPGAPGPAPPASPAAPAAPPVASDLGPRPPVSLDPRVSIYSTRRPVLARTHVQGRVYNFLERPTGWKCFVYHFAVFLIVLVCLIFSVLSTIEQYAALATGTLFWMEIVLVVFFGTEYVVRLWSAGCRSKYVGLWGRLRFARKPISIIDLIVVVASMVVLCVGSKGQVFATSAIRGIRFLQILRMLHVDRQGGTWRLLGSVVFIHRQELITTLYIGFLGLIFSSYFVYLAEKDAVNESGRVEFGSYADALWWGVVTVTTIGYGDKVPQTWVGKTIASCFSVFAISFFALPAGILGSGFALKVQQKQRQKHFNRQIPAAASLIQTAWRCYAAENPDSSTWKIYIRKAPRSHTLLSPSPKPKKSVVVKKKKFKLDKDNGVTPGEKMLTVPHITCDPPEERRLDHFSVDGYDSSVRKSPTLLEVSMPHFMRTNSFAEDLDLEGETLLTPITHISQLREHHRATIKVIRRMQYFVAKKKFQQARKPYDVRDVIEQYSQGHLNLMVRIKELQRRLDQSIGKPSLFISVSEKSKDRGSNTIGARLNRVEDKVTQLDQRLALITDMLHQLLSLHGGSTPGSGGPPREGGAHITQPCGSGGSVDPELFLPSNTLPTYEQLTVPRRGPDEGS
Experimental: (§3) CHO cell line stably expressing Iks potassium voltage-gated channel subfamily Q member 1(KCNQ1) and potassium voltage-gated channel subfamily E regulatory subunit 1 (KCNE1), cDNA strictly similar to GenBank accession number: NM_000218 and NM_000219
(§4) Cells expressing channels were cultured in medium supplemented with 20% FBS in HAM'S F12 culture dish. Cells grew in a humidified incubator at 37° C. under 5% carbon dioxide. To passage cells, remove poor medium and rinse the cells once with PBS 1X. […] Place plate on a 37° C. warming incubator 5 min. As soon as cells are detached, add 5 ml of 37° C. complete medium. Draw cell suspension into a sterile pipet and homogenize cells gently to dissociate cells aggregates. Amplify or maintain the cells by seeding 2.5*105 cells in a 6 cm dish (final volume: 5 ml). To maintain electrophysiological performances, cell density must not exceed 80%. On the day before patch clamp experiment, 3*103 cells were seeded on coverslips in the 24-well plate and incubated at 37° C. in 5% carbon dioxide.
(§5) Extracellular solution (mM): 140 NaCl, 2.5 KCl, 1 MgCl2, 2 CaCl2, 5 Glucose, 10 HEPES, pH=7.4 with NaOH.
(§6) Pipette solution (mM): 120 K-aspartic, 10 HEPES, 5 MgCl2, 5 EGTA, 4 Na2-ATP 0.3 Na2-GTP, 14 mM Phosphocreatine disodium salt, 20 u/mL Creatine phosphor kinse pH 7.2 with KOH
(§7) Glass pipette (BF150-86-10, Sutter Instruments) was made by puller (P97, Sutter Instruments). The glass pipette was manipulated using Micro-manipulator (Carm-C-S, MCI Instruments) under the microscope (AE31EF-INV, Motic). After touching the cell, a slight suction was applied to achieve high seal (GΩ). Fast capacitance (in pF) compensation was made after high seal was achieved; after achieving high seal, the membrane was broken, Cell capacitance (in pF) compensation was made from whole-cell capacitance compensation after the whole cell mode was achieved. No leak subtraction was made.
(§8) Cell was incubated with the test article for 5 minutes, or until the current reached a steady-state level. Multiple concentrations of test article were tested. The test articles were applied gradually from low to high concentration. The test and control solutions were flown into a recording chamber mounted on the stage of an inverted microscope via a gravity-fed solution delivery system. During the experiment, solutions were withdrawn from the recording chamber by vacuum aspiration. Each concentration was tested at multiple times. Each cell acted as its own control. All tests were performed at room temperature (23-25° C.).
(§9) IKs current was measured using a pulse protocol consisting of −80 mV holding potential increment up to +60 mV over a period of 5 seconds. And then quickly repolarizedat −40 mV and maintained for 4 seconds.

[6] = molecular target: T6, Iks potassium voltage-gated channel (KCNQ1 and KCNE1) (Homo sapiens, UniProt P51787); assay: as above; settings: room temperature
T6 construct: expressed in transfected cells; host or cells: CHO
T6 sequence (P51787 whole entry): as the sequence (P51787 whole entry) above
Experimental: as §3, §4, §5, §6, §7, §8, §9

With `Oc1cccc(-c2ccccc2)c1Cc1c(O)cccc1-c1ccccc1` [Compound A034, 2,2″-methylenebis(([1,1′-biphenyl]-3-ol))] the “hERG 1 μM (ion-channel inhibition)” value [1] was “D (D = <25%)”, the “hERG 10 μM (ion-channel inhibition)” value [1] was “D (D = <25%)” and the “Cav1.2 1 μM (ion-channel inhibition)” value [2] was “D (D = <25%)”. The “CaV 1.2 10 μM (ion-channel inhibition)” value [2] was “B (B = = 50-75%)”.

In the case of `CCN(CC)CCOc1ccc2ccccc2c1Sc1c(O)ccc2ccccc12` [Compound A151, 1-((2-(2-(diethylamino)ethoxy)naphthalen-1-yl)thio)naphthalen-2-ol], the inhibition at 1 μM [3] is reported as 75 to 100%, the inhibition at 10 μM [3] is reported as 75 to 100% and the inhibition at 5 min, 1 μM [4] is reported as < 25%. For the same compound, the inhibition at 5 min, 10 μM [4] was 75 to 100%, the inhibition at 5 min, 1 μM [5] was 25 to 50% and the inhibition at 5 min, 10 μM [5] was 75 to 100%.

`CCN(CC)CCCOc1ccc2ccccc2c1Cc1c(O)ccc2ccccc12` [Compound A135, 1-((2-(3-(diethylamino)propoxy)naphthalen-1-yl)methyl)naphthalen-2-ol] showed an inhibition at 1 μM [3] of 75 to 100%, an inhibition at 10 μM [3] of 75 to 100% and an inhibition at 5 min, 1 μM [4] of 25 to 50%. For the same compound, the inhibition at 5 min, 10 μM [4] was 75 to 100%, the inhibition at 5 min, 1 μM [5] was < 25% and the inhibition at 5 min, 10 μM [5] was 75 to 100%.

For `COc1ccc2ccccc2c1Cc1c(O)ccc2ccccc12` [Compound A014, 1-((2-methoxynaphthalen-1-yl)methyl)naphthalen-2-ol], the inhibition at 1 μM [3] was < 25%, the inhibition at 10 μM [3] was 75 to 100% and the inhibition at 5 min, 1 μM [4] was < 25%. The inhibition at 5 min, 10 μM [4] was 50 to 75%, the inhibition at 5 min, 1 μM [5] was < 25% and the inhibition at 5 min, 10 μM [5] was < 25%.

In the case of `CCN(CC)CCOc1ccc2ccccc2c1Cc1c(O)ccc2ccccc12.O=CO` [Compound A093, 1-((2-(2-(diethylamino)ethoxy)naphthalen-1-yl)methyl)naphthalen-2-ol formate], the “hERG 1 μM (ion-channel inhibition)” value [1] is reported as “A (A = 75-100%)”, the “hERG 10 μM (ion-channel inhibition)” value [1] is reported as “A (A = 75-100%)” and the “Cav1.2 1 μM (ion-channel inhibition)” value [2] is reported as “C (C = 25-50%)”. For the same compound, the “CaV 1.2 10 μM (ion-channel inhibition)” value [2] was “A (A = 75-100%)”, the “Iks 1 μM (ion-channel inhibition)” value ([6]; 1 μM test article) was “D (D = <25%)” and the “Iks 10 μM (ion-channel inhibition)” value ([6]; 10 μM test article) was “A (A = 75-100%)”.

For `CCN(CC)CCOc1ccc2ccccc2c1Sc1c(OC)ccc2ccccc12` [Compound A152, N,N-diethyl-2-((1-((2-methoxynaphthalen-1-yl)thio)naphthalen-2-yl)oxy)ethan-1-amine], the inhibition at 1 μM [3] was 75 to 100%, the inhibition at 5 min, 1 μM [4] was < 25% and the inhibition at 5 min, 10 μM [4] was 75 to 100%. The inhibition at 5 min, 1 μM [5] was < 25% and the inhibition at 5 min, 10 μM [5] was 50 to 75%.

For `CCN(CC)CCOc1ccc2ccccc2c1Nc1c(OC)ccc2ccccc12` [Compound A111-I-1, 2-(2-(diethylamino)ethoxy)-N-(2-methoxynaphthalen-1-yl)naphthalen-1-amine], the inhibition at 1 μM [3] was 75 to 100%, the inhibition at 10 μM [3] was 75 to 100% and the inhibition at 5 min, 1 μM [4] was < 25%. The inhibition at 5 min, 1 μM [5] was < 25% and the inhibition at 5 min, 10 μM [5] was 75 to 100%.

`CN(C)CCOc1ccc2ccccc2c1Cc1c(O)ccc2ccccc12` [Compound A134, 1-((2-(2-(dimethylamino)ethoxy)naphthalen-1-yl)methyl)naphthalen-2-ol] was tested, and the inhibition at 1 μM [3] was 75 to 100%, the inhibition at 10 μM [3] was 75 to 100% and the inhibition at 5 min, 1 μM [4] was < 25%. It also gave an inhibition at 5 min, 10 μM [4] of 75 to 100%, an inhibition at 5 min, 1 μM [5] of 25 to 50% and an inhibition at 5 min, 10 μM [5] of 75 to 100%.

For `[O-][S+](c1c(O)ccc2ccccc12)c1c(O)ccc2ccccc12` [Compound A006, 1,1′-sulfinylbis(naphthalen-2-ol)], the inhibition at 1 μM [3] was < 25%, the inhibition at 10 μM [3] was < 25% and the inhibition at 5 min, 1 μM [4] was < 25%. The inhibition at 5 min, 10 μM [4] was < 25%, the inhibition at 5 min, 1 μM [5] was < 25% and the inhibition at 5 min, 10 μM [5] was 25 to 50%.

For `O=S(=O)(Nc1ccc2ccccc2c1Cc1c(O)ccc2ccccc12)c1ccccc1` [Compound A026, N-(1-((2-hydroxynaphthalen-1-yl)methyl)naphthalen-2-yl)benzenesulfonamide], the inhibition at 1 μM [3] was < 25%, the inhibition at 10 μM [3] was 25 to 50% and the inhibition at 5 min, 1 μM [4] was < 25%. For the same compound, the inhibition at 5 min, 10 μM [4] was 75 to 100%, the inhibition at 5 min, 1 μM [5] was 75 to 100% and the inhibition at 5 min, 10 μM [5] was 75 to 100%.
